Assay results as given in ChEMBL document CHEMBL2331416, “Investigation of antibacterial mode of action for traditional and amphiphilic aminoglycosides” (Bioorg Med Chem Lett, 2013).
Converted amounts (≈) assume the structure as drawn. The source made the active and inactive calls. The calls are words filed in the database; no cut-off is given here.

Legend:
[1] = Binding affinity to 2-AP labeled 16s rRNA (unknown origin) having pairing of G1405-C1496 by fluorescence assay
[2] = Binding affinity to 2-AP labeled 16s rRNA (unknown origin) having pairing of C1405-G1496 by fluorescence assay
[3] = system: Escherichia coli; assay: Antibacterial activity against Escherichia coli ATCC 25922 assessed as growth inhibition; format: functional
[4] = system: Staphylococcus aureus; assay: Antibacterial activity against Staphylococcus aureus ATCC 25923 assessed as growth inhibition; format: functional
[5] = system: Staphylococcus aureus; assay: Antibacterial activity against Staphylococcus aureus ATCC 25923 assessed as membrane disruption at 4 X MIC after 2 hrs by SYTOX staining-based fluorescence microscopic analysis; format: functional, organism-based
[6] = system: Escherichia coli; assay: Antibacterial activity against Escherichia coli ATCC 25922 assessed as membrane disruption at 4 X MIC after 2 hrs by SYTOX staining-based fluorescence microscopic analysis; format: functional, organism-based

## C[C@H]1O[C@@H](O[C@@H]2[C@@H](O)[C@H](NC(=O)[C@@H](O)CCN)C[C@H](N)[C@H]2O[C@H]2O[C@H](CN)CC[C@H]2N)[C@H](O)[C@@H](O)[C@@H]1N [PYRANKACIN]
[1]; read-out: Kd
  Kd: 650 nM
[2]
  Kd: 1360 nM
[3]
  MIC: 5.59 µM (≈ 3 µg/mL)
[4]
  MIC: 2.8 µM (≈ 1.5 µg/mL)

## NC[C@@H]1O[C@H](O[C@H]2[C@@H](O)[C@H](O[C@@H]3[C@@H](O)[C@H](N)C[C@H](N)[C@H]3O[C@H]3O[C@H](CN)[C@@H](O)[C@H](O)[C@H]3N)O[C@@H]2CO)[C@H](N)[C@@H](O)[C@@H]1O [FRAMYCETIN]
[5]
  Activity: inactive
[1]; read-out: Kd
  Kd: 1150 nM
[2]
  Kd: 1270 nM
[3]
  MIC: 4.4 µM (≈ 2.7 µg/mL)
[4]
  MIC: 1.1 µM (≈ 0.676 µg/mL)

## CCCCCCCCCCCCCCCC(=O)NC[C@H]1O[C@@H](O[C@@H]2[C@@H](O)[C@H](N)C[C@H](N)[C@H]2O[C@H]2O[C@H](CN)[C@@H](O)[C@H](O)[C@H]2N)[C@H](O)[C@@H]1O[C@@H]1O[C@H](CN)[C@H](O)[C@@H](O)[C@@H]1N
[6]
  Activity: Active
[5]
  Activity: Active
[1]; read-out: Kd
  Kd: 1270 nM
[2]
  Kd: 737 nM
[3]
  MIC: 4.69 µM (≈ 4 µg/mL)
[4]
  MIC: 2.35 µM (≈ 2 µg/mL)

## NCC[C@H](O)C(=O)N[C@@H]1C[C@H](N)[C@@H](O[C@H]2O[C@H](CN)[C@@H](O)[C@H](O)[C@H]2N)[C@H](O[C@@H]2O[C@H](CO)[C@@H](O[C@@H]3O[C@H](CN)[C@H](O)[C@@H](O)[C@@H]3N)[C@H]2O)[C@H]1O [NEOKACIN]
[1]
  Kd: Not Active
[2]
  Kd: 1640 nM
[3]
  MIC: 8.59 µM (≈ 6.15 µg/mL)
[4]
  MIC: 2.15 µM (≈ 1.54 µg/mL)

## NC[C@H]1O[C@@H](O[C@@H]2[C@@H](O)[C@H](N)C[C@H](N)[C@H]2O[C@H]2O[C@H](CN)[C@@H](O)[C@H](O)[C@H]2N)[C@H](O)[C@@H](O)[C@@H]1O
[1]; read-out: Kd
  Kd: 26000 nM
[2]
  Kd: 845 nM
[3]
  MIC: 35.1 µM (≈ 17 µg/mL)
[4]
  MIC: 14.8 µM (≈ 7.16 µg/mL)

## C[C@H]1O[C@@H](O[C@@H]2[C@@H](O)[C@H](N)C[C@H](N)[C@H]2O[C@H]2O[C@H](CN)CC[C@H]2N)[C@H](O)[C@@H](O)[C@@H]1O
[1]; read-out: Kd
  Kd: 1330 nM
[2]
  Kd: 1200 nM
[3]
  MIC: 26 µM (≈ 11.3 µg/mL)
[4]
  MIC: 6.5 µM (≈ 2.84 µg/mL)

## NC[C@H]1O[C@H](O[C@H]2[C@H](O[C@@H]3O[C@H](CO)[C@@H](O)[C@H](O)[C@H]3O)[C@@H](O)[C@H](N)C[C@@H]2N)[C@H](N)[C@@H](O)[C@@H]1O
[1]; read-out: Kd
  Kd: 9670 nM
[2]
  Kd: 608 nM
[3]
  MIC: 92.4 µM (≈ 44.8 µg/mL)
[4]
  MIC: 44.4 µM (≈ 21.5 µg/mL)

## NC[C@H]1O[C@H](O[C@H]2[C@H](O[C@@H]3O[C@H](CO)[C@@H](N)[C@H](O)[C@H]3O)[C@@H](O)[C@H](N)C[C@@H]2N)[C@H](N)[C@@H](O)[C@@H]1O
[1]; read-out: Kd
  Kd: 5680 nM
[2]
  Kd: 2830 nM
[3]
  MIC: 44 µM (≈ 21.3 µg/mL)
[4]
  MIC: 29.6 µM (≈ 14.3 µg/mL)

## NC[C@H]1O[C@@H](O[C@@H]2[C@@H](O)[C@H](N)C[C@H](N)[C@H]2O[C@H]2O[C@H](CN)[C@@H](O)[C@H](O)[C@H]2N)[C@H](O)[C@@H](O)[C@@H]1N
[1]; read-out: Kd
  Kd: 3720 nM
[2]
  Kd: 261 nM
[3]
  MIC: 41.8 µM (≈ 20.2 µg/mL)
[4]
  MIC: 29.6 µM (≈ 14.3 µg/mL)

## NC[C@H]1O[C@H](O[C@H]2[C@H](O[C@@H]3O[C@H](CO)[C@@H](O)[C@H](N)[C@H]3O)[C@@H](O)[C@H](N)C[C@@H]2N)[C@H](N)[C@@H](O)[C@@H]1O
[1]
  Kd: Not Active
[2]
  Kd: 1150 nM
[3]
  MIC: 57.2 µM (≈ 27.7 µg/mL)
[4]
  MIC: 59.2 µM (≈ 28.6 µg/mL)

## C[C@H]1O[C@@H](O[C@@H]2[C@@H](O)[C@H](N)C[C@H](N)[C@H]2O[C@H]2O[C@H](CN)[C@@H](O)[C@H](O)[C@H]2N)[C@H](O)[C@@H](O)[C@@H]1N
[1]
  Kd: Not Active
[2]
  Kd: 556 nM
[3]
  MIC: 19.8 µM (≈ 9.26 µg/mL)
[4]
  MIC: 11 µM (≈ 5.14 µg/mL)
